Measurements published in ChEMBL document CHEMBL3425398, “(Dis)similar Analogues of Riboswitch Metabolites as Antibacterial Lead Compounds” (J Med Chem, 2015).
≈ marks a conversion by molar mass, not a printed value. One block for each molecule: values may come before it.

Key:
[1] = Binding affinity to guanine riboswitch in Bacillus subtilis
[2] = Binding affinity to lysC riboswitch in Bacillus subtilis
[3] = test system: Bacillus subtilis; assay: Antibacterial activity against Bacillus subtilis in chemical defined medium; type: functional
[4] = test system: Staphylococcus aureus; assay: Antibacterial activity against Staphylococcus aureus in rich cation-adjusted Muller-Hinton broth; type: functional
[5] = test system: Staphylococcus aureus; assay: Antibacterial activity against Staphylococcus aureus in rich cation-adjusted Muller-Hinton broth in presence of 1.5 mM DTT; type: functional
[6] = Activation of glmS riboswitch in Bacillus subtilis
[7] = Activation of glmS riboswitch in Staphylococcus aureus
[8] = Binding affinity to TPP riboswitch in Bacillus subtilis
[9] = Binding affinity to TPP riboswitch in Escherichia coli
[10] = Binding affinity to thiM riboswitch in Escherichia coli
[11] = Binding affinity to thiC riboswitch in Escherichia coli

Kd [1]: 0.5 nM
Structure (SMILES): CC(=O)Nc1nc(=O)c2[nH]cnc2[nH]1

Kd [2]: 13000 nM | MIC [3]: 26 µM (≈ 3.85 µg/mL)
Structure (SMILES): NCCOC[C@H](N)C(=O)O

Kd [1]: 100 nM | MIC [4]: 4000 µM (≈ 565 µg/mL) | MIC [5]: 14 µM
Structure (SMILES): Nc1nc(N)c(N)c(=O)[nH]1

EC50 [6]: 200000 nM
Structure (SMILES): N[C@H]1C(O)O[C@H](COP(=O)(O)O)[C@@H](O)[C@@H]1O (stereo partly specified)

EC50 [7]: 6200 nM
Structure (SMILES): N[C@@H]1[C@@H](O)[C@H](O)[C@@H](COP(=O)(O)O)C[C@@H]1O

Kd [8]: 160 nM
Structure (SMILES): Cc1ncc(C[n+]2cccc(CCOP(=O)([O-])OP(=O)(O)O)c2C)c(N)n1

Structure (SMILES): Cc1ncc(Cn2cc(CCOP(=O)(O)OP(=O)(O)O)nn2)c(N)n1
Kd [9]: 370 nM

Structure (SMILES): Cc1ncc(Cn2nnc(CCOP(=O)(O)CP(=O)(O)O)c2C)c(N)n1
Kd [9]: 9 nM

Kd [1]: 20 nM
Structure (SMILES): Nc1nc2[nH]cnc2/c(=N\O)[nH]1

Kd [2]: 30000 nM | MIC [3]: 26 µM (≈ 4.27 µg/mL)
Structure (SMILES): NCCSC[C@H](N)C(=O)O

Kd [2]: 7000 nM
Structure (SMILES): N=C(N)NCCCC[C@H](N)C(=O)O

Kd [2]: 970 nM
Structure (SMILES): NC/C=C/CC(N)C(=O)O (racemic)

Structure (SMILES): Nc1nc2[nH]cnc2c(=O)[nH]1 [GUANINE]
Kd [1]: 5 nM

Structure (SMILES): NCCCC[C@H](N)C(=O)O [LYSINE]
Kd [2]: 360 nM

Kd [8]: 50 nM
Structure (SMILES): Cc1ncc(C[n+]2csc(CCOP(=O)([O-])OP(=O)(O)O)c2C)c(N)n1 [THIAMIN DIPHOSPHATE]
Kd [10]: 600 nM | Kd [11]: 100 nM
